Experimental data: ChEMBL document CHEMBL2176953, “Synthesis and evaluation of α-thymidine analogues as novel antimalarials” (J Med Chem, 2012)

What follows are molecules tested on Plasmodium falciparum (assay: Antimalarial activity against erythrocytic stages of Plasmodium falciparum 3D7 infected in human O positive RBC after 48 hrs by SYBR-green assay). Conditions: 3D7, 48 h.
Type: functional, organism-based

Structure (SMILES) | EC50 [µM]
Cc1ccc2nc(-c3ccc(NC(=O)NC[C@H]4O[C@@H](n5cc(C)c(=O)[nH]c5=O)C[C@@H]4O)cc3)sc2c1 | > 200
Cc1cn([C@H]2C[C@H](O)[C@@H](CNC(=O)NCc3ccccc3)O2)c(=O)[nH]c1=O | > 200
Cc1cn([C@@H]2C[C@H](O)[C@@H](CNC(=O)NCc3ccccc3)O2)c(=O)[nH]c1=O | 64
Cc1cn([C@@H]2C[C@H](O)[C@@H](CNC(=S)Nc3ccc(OCc4ccccc4)cc3)O2)c(=O)[nH]c1=O | 9.5
Cc1cn([C@H]2C[C@H](O)[C@@H](CNC(=O)c3ccc([N+](=O)[O-])cc3)O2)c(=O)[nH]c1=O | > 100
Cc1cn([C@@H]2C[C@H](O)[C@@H](CNC(=S)Nc3ccc(Cl)c(C(F)(F)F)c3)O2)c(=O)[nH]c1=O | 2.3
Cc1cn([C@H]2C[C@H](O)[C@@H](CNC(=O)Nc3ccc(Cl)cc3)O2)c(=O)[nH]c1=O | > 200
Cc1cn([C@@H]2C[C@H](O)[C@@H](CNC(=O)Nc3ccc(Cc4ccccc4)cc3)O2)c(=O)[nH]c1=O | 1.5
Cc1cn([C@H]2C[C@H](O)[C@@H](CNC(=O)Nc3ccc(N4CCCCC4)cc3)O2)c(=O)[nH]c1=O | 4.8
Cc1cn([C@H]2C[C@H](O)[C@@H](CNC(=O)Nc3ccccc3-c3ccccc3)O2)c(=O)[nH]c1=O | 253
Cc1cn([C@H]2C[C@H](O)[C@@H](CNC(=O)Nc3ccc(OC4CCOCC4)cc3)O2)c(=O)[nH]c1=O | 33
Cc1cn([C@H]2C[C@H](O)[C@@H](CNC(=O)Nc3ccccc3COc3ccccc3)O2)c(=O)[nH]c1=O | 48
Cc1cn([C@@H]2C[C@H](O)[C@@H](CNC(=O)Nc3ccccc3COc3ccccc3)O2)c(=O)[nH]c1=O | 7.2
Cc1cn([C@@H]2C[C@H](O)[C@@H](CNC(=S)Nc3ccc(Br)cc3)O2)c(=O)[nH]c1=O | 20
COc1cccc(NC(=O)NC[C@H]2O[C@H](n3cc(C)c(=O)[nH]c3=O)C[C@@H]2O)c1 | 56
Cc1cn([C@@H]2C[C@H](O)[C@@H](CNC(=O)Nc3ccc(OCc4cccc(Cl)c4)cc3)O2)c(=O)[nH]c1=O | 0.24

Structure (SMILES) | EC50 [µM]
COc1ccc(NC(=O)NC[C@H]2O[C@H](n3cc(C)c(=O)[nH]c3=O)C[C@@H]2O)cc1 | 2.5
Cc1cn([C@H]2C[C@H](O)[C@@H](CNC(=O)Nc3ccccc3)O2)c(=O)[nH]c1=O | > 100
COc1ccc(NC(=O)NC[C@H]2O[C@@H](n3cc(C)c(=O)[nH]c3=O)C[C@@H]2O)cc1 | 69
COc1ccccc1NC(=O)NC[C@H]1O[C@@H](n2cc(C)c(=O)[nH]c2=O)C[C@@H]1O | > 100
Cc1cn([C@@H]2C[C@H](O)[C@@H](CNC(=O)Nc3ccc(Cl)c(C(F)(F)F)c3)O2)c(=O)[nH]c1=O | 9
Cc1cn([C@@H]2C[C@H](O)[C@@H](CNC(=O)Nc3cccc(COc4ccccc4)c3)O2)c(=O)[nH]c1=O | 1.8
Cc1cn([C@@H]2C[C@H](O)[C@@H](CNC(=O)c3ccc([N+](=O)[O-])cc3)O2)c(=O)[nH]c1=O | > 100
COc1ccc(COc2ccc(NC(=O)NC[C@H]3O[C@H](n4cc(C)c(=O)[nH]c4=O)C[C@@H]3O)cc2)cc1 | 0.21
Cc1cn([C@@H]2C[C@H](O)[C@@H](CNC(=O)Nc3ccc(OCc4ccc(Cl)cc4)cc3)O2)c(=O)[nH]c1=O | 0.88
COc1ccc(COc2ccc(NC(=O)NC[C@H]3O[C@@H](n4cc(C)c(=O)[nH]c4=O)C[C@@H]3O)cc2)cc1 | 3.8
Cc1cn([C@H]2C[C@H](O)[C@@H](CNC(=O)Nc3ccc(N4CCN(C)CC4)cc3)O2)c(=O)[nH]c1=O | 26
Cc1cn([C@H]2C[C@H](O)[C@@H](CNC(=O)Nc3ccc(OCc4ccccc4)cc3)O2)c(=O)[nH]c1=O | 4
Cc1cn([C@@H]2C[C@H](O)[C@@H](CNC(=O)Nc3ccc(OC4CCOCC4)cc3)O2)c(=O)[nH]c1=O | 1.3
Cc1cn([C@@H]2C[C@H](O)[C@@H](CNS(=O)(=O)c3ccc4ccccc4c3)O2)c(=O)[nH]c1=O | > 100
Cc1cn([C@H]2C[C@H](O)[C@@H](CNC(=S)Nc3ccc(Cl)cc3)O2)c(=O)[nH]c1=O | > 200
Cc1cn([C@H]2C[C@H](O)[C@@H](CNC(=O)Nc3ccc(C(C)(C)C)cc3)O2)c(=O)[nH]c1=O | 64

These molecules were tested on MRC5 (assay: Cytotoxicity against human MRC5 cells). Conditions: not given.
Type: cell-based

Structure (SMILES) | CC50 [µM]
Cc1cn([C@@H]2C[C@H](O)[C@@H](CNC(=S)Nc3ccc(OCc4ccccc4)cc3)O2)c(=O)[nH]c1=O | > 50
Cc1cn([C@@H]2C[C@H](O)[C@@H](CNC(=S)Nc3ccc(Cl)c(C(F)(F)F)c3)O2)c(=O)[nH]c1=O | > 50
Cc1cn([C@@H]2C[C@H](O)[C@@H](CNC(=O)Nc3ccc(Cc4ccccc4)cc3)O2)c(=O)[nH]c1=O | > 50
Cc1cn([C@H]2C[C@H](O)[C@@H](CNC(=O)Nc3ccc(N4CCCCC4)cc3)O2)c(=O)[nH]c1=O | > 50
Cc1cn([C@@H]2C[C@H](O)[C@@H](CNC(=O)Nc3ccccc3COc3ccccc3)O2)c(=O)[nH]c1=O | > 50
Cc1cn([C@@H]2C[C@H](O)[C@@H](CNC(=O)Nc3ccc(OCc4cccc(Cl)c4)cc3)O2)c(=O)[nH]c1=O | > 50
COc1ccc(NC(=O)NC[C@H]2O[C@H](n3cc(C)c(=O)[nH]c3=O)C[C@@H]2O)cc1 | > 50
Cc1cn([C@@H]2C[C@H](O)[C@@H](CNC(=O)Nc3ccc(Cl)c(C(F)(F)F)c3)O2)c(=O)[nH]c1=O | > 50
Cc1cn([C@@H]2C[C@H](O)[C@@H](CNC(=O)Nc3cccc(COc4ccccc4)c3)O2)c(=O)[nH]c1=O | > 50
Cc1cn([C@@H]2C[C@H](O)[C@@H](CNC(=O)Nc3ccc(OCc4ccc(Cl)cc4)cc3)O2)c(=O)[nH]c1=O | > 50
COc1ccc(COc2ccc(NC(=O)NC[C@H]3O[C@@H](n4cc(C)c(=O)[nH]c4=O)C[C@@H]3O)cc2)cc1 | > 50
Cc1cn([C@H]2C[C@H](O)[C@@H](CNC(=O)Nc3ccc(OCc4ccccc4)cc3)O2)c(=O)[nH]c1=O | > 50
Cc1cn([C@@H]2C[C@H](O)[C@@H](CNC(=O)Nc3ccc(OC4CCOCC4)cc3)O2)c(=O)[nH]c1=O | > 50

What follows are molecules tested against T1, Thymidylate kinase (Plasmodium falciparum (isolate 3D7), UniProt Q8I4S1) (assay: Inhibition of recombinant Plasmodium falciparum TMPK using TMP as substrate by pyruvate kinase and lactate dehydrogenase enzyme coupled assay). Conditions: not given.
T1 sequence (Q8I4S1 whole entry): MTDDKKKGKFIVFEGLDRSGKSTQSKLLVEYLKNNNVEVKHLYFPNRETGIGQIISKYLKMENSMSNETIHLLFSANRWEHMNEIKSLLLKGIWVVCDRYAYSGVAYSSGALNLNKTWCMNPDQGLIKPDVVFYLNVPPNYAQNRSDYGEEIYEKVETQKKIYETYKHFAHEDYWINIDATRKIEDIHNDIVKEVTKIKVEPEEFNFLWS

Structure (SMILES) | Ki [µM]
Cc1cn([C@H]2C[C@H](O)[C@@H](CNC(=O)NCc3ccccc3)O2)c(=O)[nH]c1=O | 64
Cc1cn([C@@H]2C[C@H](O)[C@@H](CNC(=O)NCc3ccccc3)O2)c(=O)[nH]c1=O | 198
Cc1cn([C@H]2C[C@H](O)[C@@H](CNC(=O)c3ccc([N+](=O)[O-])cc3)O2)c(=O)[nH]c1=O | 302
Cc1cn([C@@H]2C[C@H](O)[C@@H](CNC(=S)Nc3ccc(Cl)c(C(F)(F)F)c3)O2)c(=O)[nH]c1=O | 31
Cc1cn([C@H]2C[C@H](O)[C@@H](CNC(=O)Nc3ccc(Cl)cc3)O2)c(=O)[nH]c1=O | 14
Cc1cn([C@@H]2C[C@H](O)[C@@H](CNC(=S)Nc3ccc(Br)cc3)O2)c(=O)[nH]c1=O | 65
COc1cccc(NC(=O)NC[C@H]2O[C@H](n3cc(C)c(=O)[nH]c3=O)C[C@@H]2O)c1 | 159
Cc1cn([C@H]2C[C@H](O)[C@@H](CNC(=O)Nc3ccccc3)O2)c(=O)[nH]c1=O | 60
COc1ccc(NC(=O)NC[C@H]2O[C@@H](n3cc(C)c(=O)[nH]c3=O)C[C@@H]2O)cc1 | 50
COc1ccccc1NC(=O)NC[C@H]1O[C@@H](n2cc(C)c(=O)[nH]c2=O)C[C@@H]1O | 107
Cc1cn([C@@H]2C[C@H](O)[C@@H](CNC(=O)Nc3ccc(Cl)c(C(F)(F)F)c3)O2)c(=O)[nH]c1=O | 88
Cc1cn([C@@H]2C[C@H](O)[C@@H](CNC(=O)c3ccc([N+](=O)[O-])cc3)O2)c(=O)[nH]c1=O | 541
Cc1cn([C@@H]2C[C@H](O)[C@@H](CNS(=O)(=O)c3ccc4ccccc4c3)O2)c(=O)[nH]c1=O | > 1000
Cc1cn([C@H]2C[C@H](O)[C@@H](CNC(=S)Nc3ccc(Cl)cc3)O2)c(=O)[nH]c1=O | 37
Cc1cn([C@H]2C[C@H](O)[C@@H](CNC(=O)Nc3ccc(C(C)(C)C)cc3)O2)c(=O)[nH]c1=O | 47
